Measured values as given in patent US8592431B2, “Fused ring compound and use thereof” (Takeda Pharmaceutical Company Limited, priority 2009, dated 2013).

Key:
Male SHRs = assay: Antihypertensive effect: mean blood pressure in SHRs after oral administration; assay type: in vivo, rat; details: SHR, during 24 hours after administration
Protocol: Male SHRs (28-40 weeks old, Japan SLC, Inc., Japan) were anesthetized with sodium pentobarbital (50 mg/kg, i.p.). The left femoral artery was cannulated with a polyethylene catheter filled with saline comprising heparin (200 U/mL). The catheter was exteriorized at the back of the neck and each SHR was individually housed in a cage and left two or four days to recover. The mean blood pressure (MBP) was obtained from the systemic blood pressure which was monitored from the femoral artery using a pressure transducer connected to a polygraph system (Nihon Kohden Corporation). The heart rate was measured from the blood pressure pulse intervals. The rats which had MBP over 150 mmHg were used for the experiment. When the blood pressure had stabilized, vehicle (0.5 w/v % methylcellulose) or compounds were orally administered. All compounds were suspended in 0.5 w/v % methylcellulose and orally administered at a volume of 2 mL/kg. The MBP was measured during 24 hours after the administration.

Male Wistar fatty rats = assay: Plasma triglyceride and glucose lowering in Wistar fatty rats, oral, once a day for 2 weeks; assay type: in vivo, rat; details: versus vehicle group
Protocol: Male 25-31 weeks-old Wistar fatty rats (Takeda Pharmaceutical Company) were divided to each group with equalization of plasma levels of triglyceride, glucose and body weight in fed condition. The groups of rats were treated with vehicle (0.5 w/v % methylcellulose) or compounds. All compounds were suspended in 0.5 w/v % methylcellulose and orally administered at a volume of 2 mL/kg, once a day for 2 weeks. The next day of the final administration, blood was collected from the tail vein to measure plasma parameters. Heparin was used as an anticoagulant. Plasma levels of triglyceride and glucose were measured enzymatically using Hitachi Autoanalyser 9000. The inhibition rates from vehicle treatment group were calculated for each compound after the treatment for 2 weeks.

human AT1 receptor = human AT1 receptor (Homo sapiens (Human), UniProt P30556); assay: AT1 receptor antagonistic activity: [125I]-angiotensin II binding assay with AT1 membrane; details: 22.5 pM [125I]-angiotensin II, human AT1 receptor-expressing CHO-K1 membrane, 1 hr room temperature
Protocol: Evaluation of AT1 Receptor Antagonistic Activity
(1) Preparation of Human AT1 Receptor-Expressing CHO-K1 Cellular Membrane Fraction
CHO-K1 cell (RIKEN, Japan) capable of stable expression of human AT1 receptor was cultured, recovered, suspended in homogenize buffer (10 mM NaHCO3 (pH 7.4), 5 mM EDTA, 1× Complete EDTA free) [manufactured by Roche, Switzerland], and homogenized. The homogenate was centrifuged at low-speed (900×g, 10 min, 4° C.), and the supernatant was recovered and ultracentrifuged (90,000×g, 1 hr, 4° C.). The supernatant was discarded, and the pellets were resuspended in suspension buffer (50 mM Tris (pH 7.4), 1 mM EDTA, 1× Complete EDTA free).
(2) Evaluation of AT1 Receptor Antagonistic Activity
(9 μg) in the presence of AT1 membrane and test compound in 100 μL (total reaction volume) of reaction buffer (50 mM Tris (pH 7.4), 10 mM MgCl2 supplemented or not supplemented with 0.3 mg/mL fatty acid-free bovine serum albumin [manufactured by Wako Pure Chemical Industries, Ltd., Japan]). The reaction mixture was incubated in 96 well polypropylene plate for 1 hr at room temperature, and the reaction was quenched by rapid filtration (96 well cell harvester) through a GF/C filter treated with wash buffer (50 mM Tris (pH 7.4)). Subsequently, the filter was washed 5 times with 0.3 mL of ice-cooled wash buffer. […] Total binding was measured in the presence of 1% DMSO and nonspecific binding was measured in the presence of 1 μM Candesartan.

[1] = 10 mg/kg once a day for 2 weeks
[2] = 30 mg/kg once a day for 2 weeks

human AT1 receptor, sequence (P30556 whole entry): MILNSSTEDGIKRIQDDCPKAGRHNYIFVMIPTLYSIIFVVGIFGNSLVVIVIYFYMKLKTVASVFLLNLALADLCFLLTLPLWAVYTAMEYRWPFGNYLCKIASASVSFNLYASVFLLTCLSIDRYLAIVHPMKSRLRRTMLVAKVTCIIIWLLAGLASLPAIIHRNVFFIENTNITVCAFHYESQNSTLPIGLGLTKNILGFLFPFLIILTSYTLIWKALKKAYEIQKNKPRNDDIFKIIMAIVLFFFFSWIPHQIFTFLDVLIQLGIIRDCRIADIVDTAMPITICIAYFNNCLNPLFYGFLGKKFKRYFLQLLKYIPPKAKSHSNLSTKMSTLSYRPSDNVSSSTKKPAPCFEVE

Row | Compound | Maximum MBP reduction (mmHg) (Male SHRs; dose 30 mg/kg) | Inhibition rate of plasma glucose (%) (Male Wistar fatty rats; 3 mg/kg once a day for 2 weeks) | Inhibition rate of plasma triglyceride (%) (Male Wistar fatty rats; 3 mg/kg once a day for 2 weeks) | Inhibition rate of plasma glucose (%) (Male Wistar fatty rats; [1]) | Inhibition rate of plasma triglyceride (%) (Male Wistar fatty rats; [1]) | Inhibition rate of plasma glucose (%) (Male Wistar fatty rats; [2]) | Inhibition rate of plasma triglyceride (%) (Male Wistar fatty rats; [2]) | IC50 (human AT1 receptor) [nM] | Maximum MBP reduction (mmHg) (Male SHRs; dose 10 mg/kg) | Maximum MBP reduction (mmHg) (Male SHRs; dose 3 mg/kg)
1 | CCCc1c(Cc2ccc(-c3ccccc3-c3noc(=O)[nH]3)cc2F)c(=O)n(C2CCC(OC(C)C(C)(C)O)CC2)c2ncnn12 (single isomer, unassigned; (+)) [Example 458, hydrate] | 70 | −0.2 | 33.5 | 6.9 | 39.0 | 43.3 | 59.2 |  |  | 
2 | CCCc1c(Cc2ccc(-c3ccccc3-c3noc(=O)[nH]3)cc2)c(=O)n([C@H]2CC[C@H](OCC(C)(C)O)CC2)c2ccnn12 [Example 413, 4-[trans-4-(2-Hydroxy-2-methylpropoxy)cyclohexyl]-6-{[2′-(5-oxo-4,5-dihydro-1,2,4-oxadiazol-3-yl)biphenyl-4-yl]methyl}-7-propylpyrazolo[1,5-a]pyrimidin-5(4H)-one] |  | 6.5 | 12.0 | 19.1 | 21.5 | 53.3 | 46.0 | 1.6 | 79 | 
3 | CCCc1c(Cc2ccc(-c3ccccc3-c3noc(=O)[nH]3)cc2)c(=O)n([C@H]2CC[C@H](OCC(C)(C)O)CC2)c2ccnn12.[K] [Example 415, 4-[trans-4-(2-hydroxy-2-methylpropoxy)cyclohexyl]-6-{[2′-(5-oxo-4,5-dihydro-1,2,4-oxadiazol-3-yl)biphenyl-4-yl]methyl}-7-propylpyrazolo[1,5-a]pyrimidin-5(4H)-one potassium salt] |  | 25.1 | 38.1 | 54.3 | 57.7 |  |  |  |  | 63
